From US5334612A, “Pharmaceutical compositions containing as active substance sulphur-containing carboxylic acids and their use in combating retroviruses” (priority 1988, dated 1994)

Assays:
HIV-1 = experiment: Reduction of infectious viruses (HIV-1) in cell culture supernatant in vitro; format: cell-based
Procedure: For example the compounds of Formula I have a good, growth-inhibiting effect on HIV (type 1 and 2) which may be shown in vitro for example in the following virological-cell biological test processes:
3. Determination of reverse transcriptase in culture supernatant
4. Determination of the p24 antigen in culture supernatant
Thus, for example, a single dose of 0.035 mg/ml of compound I (for example alpha-lipoic acid, racemate) reduces the number of infectious viruses (for example HIV-1) in cell culture supernatant from 100% in the positive control to 0%.
For the in vitro trials the active substance of Formula I is used, for example in benzyl alcohol as solvent.
For in vitro investigations into the replication behavior of retroviruses, in particular HIV, it is for example possible to use the following substrates:
1. Virus-containing RPMI 1640 medium, for example 1X liquid 041-01875 (synthetic culture medium from Gibeo according to Moore, Gerner and Franklin, H.A. (1967), J.A.M.A. 199; 519) with a concentration of 2×10^3 -1×10^4 infectious units (PFU)/ml.
2. The cell lines Jurkat Clone E6-1, Sup T1 and HeLa CT4.

[1] = system: HIV-1 in permanently infected Molt4 cells; experiment: Plaque test, tumor cell line (Molt4) permanently infected with HIV-1; format: cell-based
From the text: (§1) The inhibitory effect is shown in a cell line permanently infected with HIV-1.
(§2) 1. Negative (non infected) cells (for example Molt 4) are removed from the culture bottle with RPMI 1640 culture medium and centrifuged down in an appropriate vessel. As a basic principle, the negative cells may be the cells from any CD4 receptor-positive T-cell line. It is, for example, possible to use the following commercially available cell lines: H9, Hut78, SupT1, Jurkat, Molt4. Molt4 is for example a monoclonal T-cell line of the peripheral blood of a cancer patient. T-cell lines are derived from human tumors, for example from specific forms of leukemia. Cell lines of this type grow permanently as long as they are kept in the appropriate culture medium and CO2 concentration in an incubator at 37° C. These lines may be purchased from the American Type Culture Collection (ATCC).
2. These Molt4 cells are then resuspended (taken up) in highly virus-containing culture medium (RPMI 1640+10% fetal calf serum) placed in a culture flask and incubated (cultivated) for ca. 12 hours in an incubator at 37° C. and 5% CO2. This infects part (depending on the concentration of the infectious virus) of the cells.
3. After 12 hours the cells are again separated by centrifugation and resuspended in fresh medium (RPMI 1640, containing no virus) and cultivated for ca. 4 weeks in an incubator.
4. Once every week the medium is completely replaced (separated by centrifugation, resuspended, etc.) and negative, non-infected cells are added.
5. After ca. 4 weeks 80-100% of the cells are infected=permanently infected cell line. The infection is for example determined using immunofluorescence. The cells infected in this manner produce HIV in a titer range of about 10^5 -10^6 infectious units (PFU). The tumor cell line permanently infected in this manner (Molt4) is treated for three weeks with 70 μg of α-lipoic acid/ml. Every three days culture medium and α-lipoic acid are replaced and the activity of the virus determined in the reverse transcriptase and plaque test. […]

[2] = system: HIV-1 in permanently infected Molt4 cells; experiment: Reverse transcriptase test, tumor cell line (Molt4) permanently infected with HIV-1; format: cell-based; conditions: 70 μg/ml, FIG. 1
From the text: as §1, §2
2. These Molt4 cells are then resuspended (taken up) in highly virus-containing culture medium (RPMI 1640+10% fetal calf serum) placed in a culture flask and incubated (cultivated) for ca. 12 hours in an incubator at 37° C. and 5% CO2. […]
5. […] The infection is for example determined using immunofluorescence. […] Every three days culture medium and α-lipoic acid are replaced and the activity of the virus determined in the reverse transcriptase and plaque test. […]

[3] = system: HIV in freshly infected Jurkat cells; experiment: Plaque test, freshly infected Jurkat cells; format: cell-based; conditions: 7 days
Procedure: To compare both compounds, freshly split Jurkat cells were infected with HIV (8×10^3 PFU) and afterwards recombinant alpha interferon (rIF) (70 units/ml) or 35 ng/ml of α-lipoic acid was added thereto using a pipette. The experiment was concluded after 7 days in order to assess in particular the growth of the first virus generation.
Cells are taken up in fresh medium and may now be defined as being freshly infected cells. As distinct from permanently infected cells, far fewer cells are virus carriers, and therefore synchronously treated, i.e. the first and second virus generation is given off into the culture supernatant relatively at the same time on the 3rd and 7th day. These virus generations may be quantified on these days (plaque and reverse transcriptase test) and may be compared. The term "single hit kinetics" is also used in this context.
3. α-lipoic acid is added using a pipette.
Cells are cultured for 7 days in an incubator.
On day 4 and day 7 samples are withdrawn from the culture for plaque and RT assay.

[4] = system: peripheral blood lymphocytes; experiment: Proliferation rate or lethality of peripheral blood lymphocytes; format: cell-based; conditions: 70 μg/ml
plasma p24 antigen (HIV) = experiment: Plasma p24 antigen level (ELISA) in HIV-infected patients; format: in vivo, human patients (HIV)
Procedure: (§3) Determination of the plasma p24 antigen level using a commercial ELISA; p24 is the designation for a structural protein of the HIV virus; ELISA (Enzyme Linked Immuno Sorbent Assay) is a test technique frequently used in virology in order to determine proteins, antigens, etc.
(§4) The following results were recorded in 4 patients in Walter Reed stage 6. Application of α-lipoic acid was, by means of infusion of an α-lipoic acid solution having the following composition: 10 ml of aqueous solution containing 250 mg of α-lipoic acid in the form of the ethylene diamine salt (=323 mg salt) as well as 1 g of 1,2-propylene glycol and 100 mg of benzyl alcohol.
Walter Reed stages: division of HIV-infected patients according to the degree of their clinical symptoms. In stage 0 no HIV virus can be detected. Stage 6 relates to the final stage of AIDS.

[5] = system: HIV from patient lymphocytes; experiment: Virus isolation with cocultivation (standard method) from patient lymphocytes; format: in vivo, human patients (HIV)
Procedure: (§5) Virus isolation with cocultivation: patient lymphocytes are cocultivated with donor lymphocytes. The virus produced by these cells (p24) is measured using an ELISA after 21 days (standard method).
as §4

[6] = system: HIV p24 production from patient lymphocytes; experiment: Virus isolation without cocultivation, p24 production of patient lymphocytes; format: in vivo, human patients (HIV)
Procedure: (§6) Virus isolation without cocultivation: the production of virus (p24) from 1×10^6 patient lymphocytes is quantitatively measured using an ELISA after 11 days. No donor lymphocytes are added in this standardized method. Virus production may be quoted in pg^1 p24/ml/200,000 cells. (Newly developed method). Cell titration: virus isolation is carried out starting from a decreasing number of patient lymphocytes (e.g. 10^6, 10^5, 10^4).
as §4

[7] = system: HIV from patient lymphocytes; experiment: Virus isolation with cell titration; format: in vivo, human patients (HIV)
Procedure: as §6, §4

infectious HIV in plasma = experiment: Plasma titer (number of infectious viruses in the plasma); format: in vivo, human patients (HIV)
Procedure: (§7) Determination of the plasma titer which states the number of infectious viruses in the plasma.
as §4

[8] = Acute toxicity in the mouse (LD 50, Miller and Tainter); conditions: in vivo, oral
Procedure: The acute toxicity of α-lipoic acid in the mouse (expressed in the LD 50 mg/kg; Method after Miller and Tainter: Proc. Soc. Exper. Biol. a. Med. 57 (1944) 261) is, for example, in oral application above 400 mg/kg body weight, that of dihydrolipoic acid above 200 mg/kg body weight mouse.

[9] = Plasma level at normal oral dosage; format: in vivo; conditions: side effect-free dosage
HIV = experiment: Virological markers overall in HIV-infected patients; format: in vivo
Procedure: as §3, §5, §6, §7, §4

[10] = cited from earlier work
[11] = animal experiments, rats and mice; cited from earlier work
[12] = patient 2, towards the end and after conclusion of therapy

Q: With `O=C(O)CCCCC1CCSS1` (racemic) [α-lipoic acid] as the molecule, how does the minimal effective concentration (HIV-1; Human immunodeficiency virus 1, same test procedure, read-out: low dose at which a virus-inhibiting effect can be demonstrated) read?
A: 1 µg/mL

Q: What about the activity at 35 µg/mL (HIV-1; Human immunodeficiency virus 1, single dose of 0.035 mg/ml, read-out: number of infectious viruses in cell culture supernatant (positive control 100%)) of the same molecule?
A: 0%

Q: What about the inhibition at 70 µg/mL ([1]; Human immunodeficiency virus 1, MOLT-4, 72 h, read-out: reduction of infectious virus units) of the same molecule?
A: ~100%

Q: What about the “number of infectious virus units” value ([1]; after 3 days, 70 μg/ml, FIG. 1) of the same molecule?
A: about 0

Q: What about the development of tolerance ([1]; three weeks, 70 μg/ml) of the same molecule?
A: no sign or evidence of the development of tolerance after three weeks

Q: And the “time from which number of virus units produced falls” value [2]?
A: ≥ 6 days

Q: What about the inhibition at 70 µg/mL ([2]; Human immunodeficiency virus 1, MOLT-4, 504 h, after three weeks, read-out: reduction of number of virus units produced) of the same molecule?
A: 90%

Q: What about the “inhibition of viral replication” value ([3]; infected, not pre-treated Jurkat cells, α-lipoic acid 35 ng/ml (so in the source), rIF 70 units/ml, FIG. 2 and 3) of the same molecule?
A: comparable inhibition

Q: And the “inhibition in the plaque test” value ([3]; α-lipoic acid 35 ng/ml (so in the source) vs rIF 70 units/ml, FIG. 3)?
A: clearer

Q: What about the “proliferation rate or lethality of peripheral blood lymphocytes” value [4] of the same molecule?
A: not substantially affected

Q: What about the “plasma p24 antigen level, fraction of initial value” (plasma p24 antigen (HIV); cases 1 and 2, ca. 14 days, summary) of the same molecule?
A: 1/10

Q: What about the “plasma p24 antigen level” value (plasma p24 antigen (HIV); patient 1, infusion, 14 days after commencement of therapy, before therapy 0.350 ng/ml) of the same molecule?
A: 0.05 ng/mL

Q: What about the “plasma p24 antigen level” value (plasma p24 antigen (HIV); patient 1, infusion, day 29, before therapy 0.350 ng/ml) of the same molecule?
A: 0.025 ng/mL

Q: And the “plasma p24 antigen level” value (plasma p24 antigen (HIV); patient 1, infusion, until end of therapy (58 days), before therapy 0.350 ng/ml)?
A: 0.25 ng/mL

Q: What about the “plasma p24 antigen level, initial fall” value (plasma p24 antigen (HIV); patient 2, infusion, prior to treatment 0.4 ng/ml) of the same molecule?
A: barely the 10-fold value

Q: What about the “plasma p24 antigen level” value (plasma p24 antigen (HIV); patient 3) of the same molecule?
A: always negative

Q: And the “plasma p24 antigen level, change after end of therapy” value (plasma p24 antigen (HIV); patient 4, after end of therapy)?
A: again rose to the initial values

Q: And the “plasma p24 antigen level” value (plasma p24 antigen (HIV); patient 4, infusion, up to the 18th day of therapy, before/at beginning of therapy 0.070 ng/ml)?
A: 0.005 ng/mL

Q: And the “virus isolation from patient lymphocytes” value ([5]; cases 2 and 3, summary)?
A: totally negative

Q: What about the “virus isolation (standard method)” value ([5]; patient 1, throughout the entire therapy period) of the same molecule?
A: positive

Q: And the virus isolation [5, 12]?
A: repeatedly negative

Q: And the “virus production in virus isolations from patient lymphocytes” value ([6]; cases 2, 3 and 4, summary)?
A: markedly lower virus production

Q: What about the “production of p24 antigen, change after end of therapy” value ([6]; patient 3, after the end of therapy) of the same molecule?
A: rose again slowly

Q: And the “production of p24 antigen” value ([6]; patient 3, by day 28, before therapy about 10)?
A: 0 pg/ml 200,000 cells

Q: And the “production of p24 antigen, change” value ([6]; patient 3, day 5 of therapy, before therapy about 10 pg/ml 200,000 cells)?
A: doubled

Q: And the “p24 production, change after end of therapy” value ([6]; patient 4, after end of therapy, also treated with AZT)?
A: did not rise significantly

Q: And the “p24 production/ml/200,000 cells, fall” value ([6]; patient 4, up to the end of therapy, before therapy 8 pg/ml, also being treated with AZT at this time)?
A: 75%

Q: And the “cell titer, number of cells from which virus could be cultivated” value ([7]; patient 2, during treatment, before treatment 10^3 cells)?
A: 10^5 cells

Q: What about the “cell titer, fall” value ([7]; patient 2, during treatment, before treatment 1000) of the same molecule?
A: fell by two orders of magnitude

Q: And the “results after conclusion of therapy” value ([7]; patient 4, after conclusion of therapy)?
A: deteriorated once again

Q: What about the virus detection ([7]; patient 4, end of therapy (in the current range), before therapy virus clearly detected in 2×10^6 cells) of the same molecule?
A: hardly any viruses could be detected

Q: What about the positive plasma titers (infectious HIV in plasma; cases 2 and 4, in the course of therapy, summary) of the same molecule?
A: 0

Q: What about the plasma titrations (infectious HIV in plasma; patient 3) of the same molecule?
A: always negative

Q: What about the plasma titer (infectious HIV in plasma; patient 4, during therapy, before therapy 10) of the same molecule?
A: 0

Q: What about the LD50 [8] of the same molecule?
A: > 400 mg/kg

Q: What about the “factor by which 70 μg/ml is above the plasma levels” value [9] of the same molecule?
A: 10-20 times

Q: What about the virus markers (HIV; [12]) of the same molecule?
A: drastic fall in all virus markers

Q: What about the “improvement in virological markers” value (HIV; patients with clearly measurable virological markers) of the same molecule?
A: marked improvement in these parameters

Q: What about the pharmacological properties ([10]; racemate) of the same molecule?
A: anti-inflammatory, antinociceptive (analgesic) and cytoprotective properties

Q: What about the “effect in fungus poisoning / coenzyme and growth factor roles” value ([10]; α-lipoic acid racemate) of the same molecule?
A: acts as co-enzyme in many enzymatic reactions, constitutes a growth factor for certain bacteria and protozoas and is used in death-head fungus poisoning

Q: What does the source list for `O=C(O)CCCCC(S)CCS` (stereo not drawn) [dihydrolipoic acid, 6,8-dimercapto-octanoic acid]?
A: LD50 [8]: > 200 mg/kg; inactivation of snake venom [11]: inactivates snake venom
